Columns and labels:
Experiment in all cases: Cysteine liganding, probe competition
Assay type in all cases: binding
[1] = biological target: T1, KEAP1 Kelch-like ECH-associated protein 1 (Homo sapiens, UniProt Q14145); conditions: KEAP1 Res# 288, uniprot Q14145
T1 construct: Cells were resuspended in cold PBS on ice and sonicated with a probe sonicator to achieve lysis; endogenous in cells
In short: (§1)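 Steps: sonicate cells in cold PBS; treat 5 mg/ml lysate with compound (25° C, 1 hr); add desthiobiotin iodoacetamide probe from a 10 mM stock (25° C, 1 hr); precipitate, reduce, alkylate, digest with trypsin; capture labelled peptides on streptavidin for analysis.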

[2] = biological target: T2, VDAC3 Voltage-dependent anion-selective channel protein (Homo sapiens, UniProt Q9Y277); conditions: VDAC3 Res# 229, uniprot Q9Y277
T2 construct: Cells were resuspended in cold PBS on ice and sonicated with a probe sonicator to achieve lysis; endogenous in cells
T2 sequence (Q9Y277 whole entry): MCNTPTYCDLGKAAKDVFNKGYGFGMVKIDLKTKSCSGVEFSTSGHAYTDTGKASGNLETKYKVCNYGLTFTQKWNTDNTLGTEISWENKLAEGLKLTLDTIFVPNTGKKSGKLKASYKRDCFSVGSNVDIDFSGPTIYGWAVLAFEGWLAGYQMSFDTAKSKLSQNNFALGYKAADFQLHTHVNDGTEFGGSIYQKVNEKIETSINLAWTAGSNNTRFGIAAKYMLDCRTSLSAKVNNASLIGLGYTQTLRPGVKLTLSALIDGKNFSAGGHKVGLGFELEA
In short: as §1

[3] = biological target: T3, MYCBP2 E3 ubiquitin-protein ligase MYCBP2 (Homo sapiens, UniProt O75592)
T3 construct: Cells were resuspended in cold PBS on ice and sonicated with a probe sonicator to achieve lysis; endogenous in cells
In short: as §1

[4] = biological target: T4, B-cell lymphoma 6 protein (BCL6) (Homo sapiens, UniProt P41182)
T4 construct: Cells were resuspended in cold PBS on ice and sonicated with a probe sonicator to achieve lysis; endogenous in cells
In short: as §1

[5] = biological target: T5, INTS1 Integrator complex subunit 1 (Homo sapiens, UniProt Q8N201)
T5 construct: Cells were resuspended in cold PBS on ice and sonicated with a probe sonicator to achieve lysis; endogenous in cells
T5 sequence (Q8N201 whole entry, one chain of several): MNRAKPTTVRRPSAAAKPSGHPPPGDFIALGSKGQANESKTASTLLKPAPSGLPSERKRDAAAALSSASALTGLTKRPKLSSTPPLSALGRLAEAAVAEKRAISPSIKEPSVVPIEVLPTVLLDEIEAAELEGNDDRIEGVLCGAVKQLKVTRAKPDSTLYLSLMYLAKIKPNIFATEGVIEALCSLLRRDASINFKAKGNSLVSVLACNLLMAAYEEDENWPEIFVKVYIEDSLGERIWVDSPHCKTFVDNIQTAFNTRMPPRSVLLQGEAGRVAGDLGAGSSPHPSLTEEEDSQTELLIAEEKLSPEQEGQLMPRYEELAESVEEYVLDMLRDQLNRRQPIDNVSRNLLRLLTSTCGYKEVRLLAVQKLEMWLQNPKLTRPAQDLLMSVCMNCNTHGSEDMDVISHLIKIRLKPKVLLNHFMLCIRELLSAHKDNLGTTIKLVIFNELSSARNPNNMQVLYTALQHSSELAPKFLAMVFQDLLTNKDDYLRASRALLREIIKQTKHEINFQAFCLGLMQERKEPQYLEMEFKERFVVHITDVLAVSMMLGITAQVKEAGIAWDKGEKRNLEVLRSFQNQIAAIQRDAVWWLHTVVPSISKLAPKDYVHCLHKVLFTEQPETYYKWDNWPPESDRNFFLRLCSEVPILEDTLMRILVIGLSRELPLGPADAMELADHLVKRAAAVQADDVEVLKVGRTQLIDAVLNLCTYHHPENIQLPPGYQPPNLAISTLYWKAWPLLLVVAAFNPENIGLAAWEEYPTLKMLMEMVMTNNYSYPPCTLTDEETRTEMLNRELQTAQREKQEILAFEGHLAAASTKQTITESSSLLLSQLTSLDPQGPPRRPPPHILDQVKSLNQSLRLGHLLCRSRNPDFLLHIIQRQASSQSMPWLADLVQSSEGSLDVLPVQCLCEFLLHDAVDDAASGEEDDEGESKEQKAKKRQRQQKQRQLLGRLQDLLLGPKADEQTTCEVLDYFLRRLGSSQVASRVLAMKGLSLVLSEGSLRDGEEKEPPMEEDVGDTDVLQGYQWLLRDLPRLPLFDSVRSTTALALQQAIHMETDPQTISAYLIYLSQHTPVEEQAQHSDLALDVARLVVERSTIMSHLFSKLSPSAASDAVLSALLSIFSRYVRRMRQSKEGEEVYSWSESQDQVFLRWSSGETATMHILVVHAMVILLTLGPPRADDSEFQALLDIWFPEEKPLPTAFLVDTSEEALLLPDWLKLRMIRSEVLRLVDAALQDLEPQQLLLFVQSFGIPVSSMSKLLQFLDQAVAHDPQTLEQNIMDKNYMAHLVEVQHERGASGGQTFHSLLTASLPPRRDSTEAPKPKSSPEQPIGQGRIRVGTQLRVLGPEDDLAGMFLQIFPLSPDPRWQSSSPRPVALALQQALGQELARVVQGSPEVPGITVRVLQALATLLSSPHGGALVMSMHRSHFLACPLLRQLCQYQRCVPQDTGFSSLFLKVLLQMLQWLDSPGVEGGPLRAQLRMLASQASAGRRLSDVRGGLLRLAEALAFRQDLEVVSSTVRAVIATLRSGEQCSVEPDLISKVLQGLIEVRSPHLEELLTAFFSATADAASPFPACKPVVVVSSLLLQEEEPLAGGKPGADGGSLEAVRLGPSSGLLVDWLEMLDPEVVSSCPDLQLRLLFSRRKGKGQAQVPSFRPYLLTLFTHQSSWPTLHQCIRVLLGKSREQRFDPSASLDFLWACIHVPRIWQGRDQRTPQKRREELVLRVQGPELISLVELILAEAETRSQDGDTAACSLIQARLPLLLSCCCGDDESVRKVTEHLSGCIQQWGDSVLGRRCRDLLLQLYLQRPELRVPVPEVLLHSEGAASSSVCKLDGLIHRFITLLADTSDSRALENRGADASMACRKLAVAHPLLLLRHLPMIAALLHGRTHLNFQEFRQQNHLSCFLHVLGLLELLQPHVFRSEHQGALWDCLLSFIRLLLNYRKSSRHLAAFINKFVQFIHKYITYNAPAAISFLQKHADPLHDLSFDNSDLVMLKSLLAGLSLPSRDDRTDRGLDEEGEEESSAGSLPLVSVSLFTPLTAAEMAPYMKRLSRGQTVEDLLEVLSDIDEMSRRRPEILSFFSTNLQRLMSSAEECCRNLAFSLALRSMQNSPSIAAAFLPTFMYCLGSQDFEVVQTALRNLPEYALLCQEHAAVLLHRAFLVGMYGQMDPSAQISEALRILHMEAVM
In short: as §1

[6] = biological target: T6, CTSC Dipeptidyl peptidase 1 (Homo sapiens, UniProt P53634)
T6 construct: 200 μL of lysate containing 5 mg/ml proteome was treated with 2 μL of 100× compound stock; endogenous in cells
T6 sequence (P53634 25-463): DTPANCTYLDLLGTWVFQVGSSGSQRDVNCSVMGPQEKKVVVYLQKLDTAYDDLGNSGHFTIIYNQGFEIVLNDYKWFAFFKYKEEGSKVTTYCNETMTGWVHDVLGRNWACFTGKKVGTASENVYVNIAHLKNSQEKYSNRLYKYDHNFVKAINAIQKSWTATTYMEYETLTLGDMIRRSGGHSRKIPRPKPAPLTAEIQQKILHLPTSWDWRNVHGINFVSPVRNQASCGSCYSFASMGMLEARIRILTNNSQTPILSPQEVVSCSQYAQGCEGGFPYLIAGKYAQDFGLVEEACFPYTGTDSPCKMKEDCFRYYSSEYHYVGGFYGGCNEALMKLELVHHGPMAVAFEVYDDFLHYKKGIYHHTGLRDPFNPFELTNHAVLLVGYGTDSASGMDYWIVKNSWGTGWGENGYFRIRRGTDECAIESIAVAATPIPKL
In short: as §1

[7] = biological target: T7, AMMECR1L AMMECR1-like protein (Homo sapiens, UniProt Q6DCA0)
T7 construct: 200 μL of lysate containing 5 mg/ml proteome was treated with 2 μL of 100× compound stock; endogenous in cells
T7 sequence (Q6DCA0 whole entry): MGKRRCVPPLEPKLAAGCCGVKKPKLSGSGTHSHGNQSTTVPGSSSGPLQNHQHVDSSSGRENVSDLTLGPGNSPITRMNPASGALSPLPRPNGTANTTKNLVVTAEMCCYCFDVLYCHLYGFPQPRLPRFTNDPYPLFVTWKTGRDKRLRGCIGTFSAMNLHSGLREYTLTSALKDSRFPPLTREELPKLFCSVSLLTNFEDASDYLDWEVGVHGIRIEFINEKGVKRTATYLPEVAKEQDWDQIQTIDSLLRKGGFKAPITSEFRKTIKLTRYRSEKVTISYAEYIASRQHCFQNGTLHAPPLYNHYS
In short: as §1

T1 sequence (Q14145 whole entry): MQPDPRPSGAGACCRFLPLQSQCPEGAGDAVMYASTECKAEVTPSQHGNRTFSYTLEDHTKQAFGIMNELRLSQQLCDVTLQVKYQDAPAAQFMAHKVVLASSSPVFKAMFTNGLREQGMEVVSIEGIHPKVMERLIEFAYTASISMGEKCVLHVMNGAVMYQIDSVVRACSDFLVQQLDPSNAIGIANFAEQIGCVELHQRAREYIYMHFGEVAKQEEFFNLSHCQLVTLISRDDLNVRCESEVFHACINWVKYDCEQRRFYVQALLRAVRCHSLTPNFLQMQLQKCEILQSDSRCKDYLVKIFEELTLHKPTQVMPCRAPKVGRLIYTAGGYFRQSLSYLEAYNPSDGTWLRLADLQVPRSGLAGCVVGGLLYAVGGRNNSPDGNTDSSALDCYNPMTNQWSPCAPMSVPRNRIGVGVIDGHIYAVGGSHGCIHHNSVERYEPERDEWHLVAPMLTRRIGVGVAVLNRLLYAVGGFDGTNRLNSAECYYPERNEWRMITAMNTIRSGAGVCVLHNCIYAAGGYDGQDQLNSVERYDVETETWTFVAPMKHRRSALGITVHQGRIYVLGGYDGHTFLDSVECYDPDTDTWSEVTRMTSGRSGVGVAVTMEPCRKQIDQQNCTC

`COc1ccc2c(c1)CCCN2C(=O)CCl` [KB02] was tested, and the Liganded [1] was “YES”, the Liganded [2] was “YES” and the Liganded ([3]; MYCBP2 Res# 1131, uniprot O75592) was “YES”. For the same compound, the Liganded ([3]; MYCBP2 Res# 3152, uniprot O75592) was “YES”.

In the case of `C=CC(=O)N(c1ccccc1)c1ccc(Br)cc1` [KB05], the “KB05_100 uM_percent_inhibition” value ([4]; 100 uM) is reported as 7% and the inhibition at 100 µM ([4]; read-out: KB05_100 uM_percent_inhibition) is reported as 9%.

With `O=C(CCl)Nc1cc(C(F)(F)F)cc(C(F)(F)F)c1` [KBO3] the Liganded ([5]; INTS1 Res# 1534, uniprot Q8N201) was “YES”, the “100 Max” value ([5]; uniprot Q8N201) was 51.25 and the 100 ave ([5]; uniprot Q8N201) was 36.495. The “500 Max” value ([5]; uniprot Q8N201) was 77.65, the 500 ave ([5]; uniprot Q8N201) was 70.05 and the Liganded ([6]; CTSC Res# 258, uniprot P53634) was “YES”. For the same compound, the “100 Max” value ([6]; uniprot P53634) was 76.05, the 100 ave ([6]; uniprot P53634) was 76.05 and the “500 Max” value ([6]; uniprot P53634) was 95.44. For the same compound, the 500 ave ([6]; uniprot P53634) was 95.44, the Liganded ([7]; AMMECR1L Res# 153, uniprot Q6DCA0) was “YES” and the “100 Max” value ([7]; uniprot Q6DCA0) was 91.46. The 100 ave ([7]; uniprot Q6DCA0) was 91.46, the “500 Max” value ([7]; uniprot Q6DCA0) was 85.74 and the 500 ave ([7]; uniprot Q6DCA0) was 85.74.
